Literature values in patent US20230137840A1, “MINT MASK AND METHODS OF USE THEREOF” (Georgetown University, priority 2016, published 2023).

Tests used:
[1] = tested on: upper airway resistance in normal subjects; conditions: inhaled; ten normal subjects
[2] = tested on: nasal resistance; conditions: several studies
[3] = tested on: cough; conditions: guinea pigs
[4] = tested on: bronchoconstriction; conditions: guinea pigs
[5] = tested on: bronchial smooth muscle
[6] = tested on: bronchi
[7] = tested on: chemical irritants; conditions: menthol vapor; irritants including acrolein, acetic acid, cyclohexanone
[8] = molecular target: transient receptor potential melastatin 8 (TRPM8) (Homo sapiens, UniProt Q7Z2W7); conditions: present in cold-sensitive sensory neurons
[9] = molecular target: transient receptor potential ankyrin 1 (TRPA1) (Homo sapiens, UniProt O75762); conditions: irritant-sensing channel
[10] = tested on: patients with chronic cough; conditions: menthol inhalation
[11] = tested on: cough reflex; conditions: menthol vapor; taste of sucrose
[12] = tested on: cough after fiberoptic bronchoscopy; conditions: premedication with 1% menthol inhalation
[13] = tested on: asthmatics; conditions: nebulized, 10 mg twice daily for four weeks; 23 asthmatics

Chain of transient receptor potential ankyrin 1 (TRPA1) (O75762 whole entry, species assumed): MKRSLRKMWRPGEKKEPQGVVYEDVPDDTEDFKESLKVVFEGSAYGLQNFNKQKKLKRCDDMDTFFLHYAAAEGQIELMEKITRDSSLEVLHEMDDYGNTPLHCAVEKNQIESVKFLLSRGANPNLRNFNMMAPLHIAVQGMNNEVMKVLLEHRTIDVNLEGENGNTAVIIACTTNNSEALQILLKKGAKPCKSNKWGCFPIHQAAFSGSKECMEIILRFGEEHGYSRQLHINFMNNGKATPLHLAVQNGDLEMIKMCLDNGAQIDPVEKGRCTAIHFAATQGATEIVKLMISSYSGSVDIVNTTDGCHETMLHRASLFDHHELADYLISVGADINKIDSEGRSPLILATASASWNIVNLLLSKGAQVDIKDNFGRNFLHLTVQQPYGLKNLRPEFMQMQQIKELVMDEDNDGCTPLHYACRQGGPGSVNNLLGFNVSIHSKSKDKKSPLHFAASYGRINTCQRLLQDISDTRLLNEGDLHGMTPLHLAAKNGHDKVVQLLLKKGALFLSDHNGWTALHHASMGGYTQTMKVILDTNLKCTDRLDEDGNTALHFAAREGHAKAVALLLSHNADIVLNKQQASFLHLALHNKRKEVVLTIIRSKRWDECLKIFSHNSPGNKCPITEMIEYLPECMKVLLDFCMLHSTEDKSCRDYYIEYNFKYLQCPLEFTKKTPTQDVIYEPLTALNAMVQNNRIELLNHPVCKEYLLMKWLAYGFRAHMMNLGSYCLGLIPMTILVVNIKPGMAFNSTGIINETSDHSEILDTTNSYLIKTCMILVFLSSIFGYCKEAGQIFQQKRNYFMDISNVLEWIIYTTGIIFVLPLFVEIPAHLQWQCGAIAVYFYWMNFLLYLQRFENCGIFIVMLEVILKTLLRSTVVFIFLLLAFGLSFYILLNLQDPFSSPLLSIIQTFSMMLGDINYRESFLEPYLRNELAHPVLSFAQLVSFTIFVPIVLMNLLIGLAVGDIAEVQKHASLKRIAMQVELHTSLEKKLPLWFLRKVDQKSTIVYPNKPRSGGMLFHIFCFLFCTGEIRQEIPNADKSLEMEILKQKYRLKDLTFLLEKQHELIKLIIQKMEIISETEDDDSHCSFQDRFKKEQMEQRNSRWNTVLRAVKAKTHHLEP
Chain of transient receptor potential melastatin 8 (TRPM8) (Q7Z2W7 whole entry, species assumed): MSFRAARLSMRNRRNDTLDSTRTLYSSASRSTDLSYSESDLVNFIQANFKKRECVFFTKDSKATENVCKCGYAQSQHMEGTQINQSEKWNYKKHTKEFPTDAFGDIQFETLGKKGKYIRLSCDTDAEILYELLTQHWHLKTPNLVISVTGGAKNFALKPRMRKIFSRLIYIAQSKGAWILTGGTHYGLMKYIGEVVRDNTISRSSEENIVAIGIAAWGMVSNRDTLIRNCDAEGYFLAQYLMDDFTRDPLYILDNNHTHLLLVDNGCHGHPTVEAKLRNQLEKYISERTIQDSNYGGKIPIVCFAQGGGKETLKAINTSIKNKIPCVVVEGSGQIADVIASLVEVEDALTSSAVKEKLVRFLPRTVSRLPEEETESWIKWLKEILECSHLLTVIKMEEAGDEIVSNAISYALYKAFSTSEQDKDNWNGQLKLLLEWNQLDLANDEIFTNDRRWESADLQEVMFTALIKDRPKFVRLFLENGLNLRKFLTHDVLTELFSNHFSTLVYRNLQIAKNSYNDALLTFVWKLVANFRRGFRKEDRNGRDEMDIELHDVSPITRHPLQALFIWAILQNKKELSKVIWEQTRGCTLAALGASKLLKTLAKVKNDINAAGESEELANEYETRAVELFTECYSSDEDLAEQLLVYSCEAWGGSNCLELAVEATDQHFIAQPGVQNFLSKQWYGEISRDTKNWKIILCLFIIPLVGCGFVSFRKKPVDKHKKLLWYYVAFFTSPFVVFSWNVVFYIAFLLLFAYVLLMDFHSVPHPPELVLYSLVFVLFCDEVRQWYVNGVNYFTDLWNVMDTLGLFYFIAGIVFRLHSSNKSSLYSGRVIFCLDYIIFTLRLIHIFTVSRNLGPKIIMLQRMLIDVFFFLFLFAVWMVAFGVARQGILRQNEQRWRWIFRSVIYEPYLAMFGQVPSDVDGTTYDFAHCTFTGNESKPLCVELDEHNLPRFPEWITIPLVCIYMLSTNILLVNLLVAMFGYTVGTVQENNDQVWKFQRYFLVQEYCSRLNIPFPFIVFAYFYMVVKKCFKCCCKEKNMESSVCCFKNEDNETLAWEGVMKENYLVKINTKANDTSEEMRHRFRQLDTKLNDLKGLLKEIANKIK

## CC(C)[C@@H]1CC[C@@H](C)C[C@H]1O [menthol, (1R,2S,5R)-2-Isopropyl-5-methylcyclohexanol]
[1]
  effect on upper airway resistance: no effect
[2]
  effect on nasal resistance: no effect
[3]
  antitussive (cough suppressant) effect: antitussive (cough suppressant) effects
[4]
  capsaicin-induced bronchoconstriction: attenuates
  neurokinin A-induced bronchoconstriction: attenuates
[5]
  bronchial contraction due to high extracellular potassium: inhibits
  bronchial contraction due to methacholine: inhibits
[6]
  relaxation of bronchi preconstricted with acetylcholine or potassium chloride: relaxes
[7]
  reactivity to chemical irritants: reduces reactivity
[8]
  interaction with TRPM8: interacts
[9]
  interaction with TRPA1: interacts
[10]
  cough sensitivity to inhaled capsaicin: reduced cough sensitivity
  effect on inspiratory flows: had an effect
[11]
  cough reflex to capsaicin challenge: reduced cough reflex
[12]
  effect on cough after fiberoptic bronchoscopy: no effect
[13]
  diurnal variation in peak expiratory flow rate (PEER): decreased
  effect on FEV1 (forced expiratory volume at 1 second): no effect
  effect on VC (vital capacity): no effect
  use of metered dose inhalers: reduced use
  wheezing episodes: reduced wheezing episodes

## OC[C@H]1O[C@@](CO)(O[C@H]2O[C@H](CO)[C@@H](O)[C@H](O)[C@H]2O)[C@@H](O)[C@@H]1O [sucrose]
[11]
  cough reflex to capsaicin challenge: reduced cough reflex
